# Measured values published in US20180250328A1, “Metallocene-boronic acid-containing compounds and copolymers as antimicrobial agents” (University of South Carolina, priority 2017, published 2018).
# Tests used:
# [1] = system: six strains of bacteria (S. aureus, E. faecalis, E. coli, P. vulgaris, P. aeruginosa and K. pneumoniae); test: LIVE/DEAD bacteria viability assay by CSLM; type: cell-based; details: 18-hour incubation at 37° C.; penicillin-G 5, PCo-PPB 11 μg, PCo-PPB-Peni 16 μg per 1 mL
# Protocol: One (1) mL of active bacterial stock of various strains was introduced to 5 penicillin-G, 11 μg cobaltocenium-boronic acid-containing copolymer, and 16 μg penicillin-loaded cobaltocenium-boronic acid-containing copolymers (penicillin-G weight: 5 m), respectively. An untreated cell suspension was used as the control. Following 18-hour incubation at 37° C., 1 μL LIVE/DEAD BacLight (Bacterial Viability Kit; INVITROGEN INC.®) was added to the incubation solution. After incubation for 15 minutes, cells were imaged using a LEICA TCS SP5® Laser Scanning Confocal Microscope with a 63X oil immersion lens.
# [2] = system: S. aureus; test: disk-diffusion assay of penicillin-loaded polymers; type: cell-based; details: Staphylococcus aureus
# Protocol: FIG. 8B is a 3-D plot of inhibition zones of penicillin, penicillin loaded cobaltocenium-containing polymers (PCo-Peni), and penicillin loaded cobaltocenium-boronic acid-containing copolymers (PCo-PPB-Peni) against six strains of bacteria using different amounts of penicillin (A: 5 μg penicillin-G alone, B: PCo-Peni with 5 μg penicillin-G, C: PCo-PPB-Peni with 5 μg penicillin-G, D: 10 μg penicillin-G, E: PCo-Peni with 10 μg penicillin-G, F: PCo-PPB-Peni with 10 μg penicillin-G).
# For the bacteria, a single colony was inoculated in 30 mL tryptic soy broth (TSB) at 37° C. for 24 hours, shaking at 190 rpm/min. All bacteria were grown to an optical density of about 1.00 (OD600=1.00) for further use. To conduct the agar disk-diffusion assays, actively-growing cultures of each bacterial strain on mannitol salt agar (MSA) were inoculated on tryptic soy broth (TSB) agar plates. The bacterial growth culture (cell concentrations were 1.0×10^6 CFU/mL) was diluted from 10 μL to 1 mL in tryptic soy broth (TSB) and 100 μL was spread on TSB agar plates to form a bacterial lawn covering the plate surface. Then, 6 mm (diameter) filter discs were added to the plate surface, aqueous cobaltocenium-boronic acid-containing copolymers (PCo-PPB) at different concentrations were added to disks, and the plates were incubated at 28° C. for 18 h. […]
compound,measurement,setting,value
CC1(C)S[C@@H]2[C@H](NC(=O)Cc3ccccc3)C(=O)N2[C@H]1C(=O)O [penicillin-G],killing of bacteria (LIVE/DEAD BacLight),[1],not effective at killing bacteria
same,zone of inhibition at 5 µg/disc,[2]; 5 μg penicillin-G,7 mm
same,zone of inhibition at 10 µg/disc,[2]; 10 μg penicillin-G,14.5 mm
